From patent US20260200925A1, “SMALL MOLECULE INHIBITORS OF KRAS MUTATED PROTEINS” (MERCK SHARP & DOHME LLC, priority 2021, published 2026)
Counter-ions that a name gives are not always drawn.

What was measured:
[1] = test system: AsPC-1 cells containing homozygous KRAS-G12D activating mutation (p-ERK); conditions: Homo sapiens, ASPC1, 2 h, read-out: KRAS G12D ASPC-1 IC50 (nM)
Method: Procedure for Cellular Phospho-ERK Assay, G12D
AsPC-1 cells (ATCC® CRL-1682™), containing homozygous KRAS-G12D activating mutation, were cultured in T150 flask in growth medium (RPMI medium 1640-GlutaMAX™—I (ThermoFisher Scientific 61870) containing 10% fetal bovine serum (ThermoFisher Scientific 10091148)). The cells were harvested in growth medium after TrypLE (ThermoFisher scientific 12604021) digestion and were seeded in a 384-well collagen coated cell culture plate (Corning 356702) at a density of 15,000 cells/well, and incubated at 37° C., 5% CO2 overnight. […] RPMI medium 1640-GlutaMAX™—I was added to the intermediate plate and the contents of the intermediate plate were then transferred to the 384-well collagen coated cell culture plate, which was incubated at 37° C., 5% CO2 for 2 hours. After removal of medium from the collagen coated cell culture plate, cells were lysed in lysis buffer from Alpha SureFire® Ultra™ Multiplex p-ERK and total ERK assay kit (PerkinElmer MPSU-PTERK) containing Halt™ Protease and Phosphatase inhibitor cocktail (ThermoFisher Scientific 78446) at room temperature with constant shaking at 300 rpm for 30 minutes. The cell lysates were then transferred to an OptiPlate-384 plate (PerkinElmer 6005620), and the phosphorylation of ERK (p-ERK) and total ERK levels were detected by Alpha SureFire® Ultra™ Multiplex p-ERK kit and total ERK assay kit (PerkinElmer MPSU-PTERK) following the manufacturer's protocol. Assay plates were read on a EnVision Multimode Plate Reader (PerkinElmer), and the ratio of p-ERK vs. total ERK in each well was used as the final readout. Dose response curves were analyzed using a 4-parameter logistic model to calculate IC50 values using Spotfire software.

[2] = target: Recombinant KRAS-G12V (SEQ ID NO: 3) (Homo sapiens, UniProt P01116, G12V); assay: SOS-catalyzed guanine nucleotide exchange (GNE) assay, KRAS-G12V
Chain of Recombinant KRAS-G12V (SEQ ID NO: 3) (P01116 with tags, fused parts or gaps isoform P01116-2 G12V): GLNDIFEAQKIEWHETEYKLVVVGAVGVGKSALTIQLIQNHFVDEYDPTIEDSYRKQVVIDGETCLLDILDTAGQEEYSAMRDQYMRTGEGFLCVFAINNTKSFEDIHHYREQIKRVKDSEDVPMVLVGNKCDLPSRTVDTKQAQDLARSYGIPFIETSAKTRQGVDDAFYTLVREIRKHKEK
Method: (§1) Specifically, the SOS-catalyzed nucleotide exchange assay utilizes a preformed time-resolved fluorescence resonance energy transfer (TR-FRET) complex containing a specific biotinylated RAS protein (KRAS-G12C/V/D, HRAS, NRAS; described above) with BODIPY-GDP, and Terbium-streptavidin. Test compounds are preincubated with this complex for 60 minutes.
(§2) To assemble the preformed TR-FRET complexes, each biotinylated RAS protein is diluted to 2 μM in an EDTA Buffer (20 mM HEPES, 50 mM sodium chloride, 10 mM EDTA, and 0.01% Tween) and incubated at room temperature for one hour. This mixture is then further diluted to 90 nM in an Assay Buffer (20 mM HEPES, 150 mM sodium chloride, 10 mM magnesium chloride, and 0.005% Tween) containing 15 nM of Terbium-Streptavidin (Invitrogen, catalog #PV3577) and 900 nM of BODIPY-GDP (Invitrogen, catalog #G22360) and incubated at room temperature for six hours. It should be noted that this preformed TR-FRET complex for each of the RAS proteins was made ahead of time, aliquoted and stored at −80° C. until the day of the experiment.
(§3) Once titrations are made, 10 nL of the diluted compounds is acoustically dispensed into a 384-well assay plate (Corning, catalog #3820) using an Echo 550 (Labcyte). Each well of the assay plate subsequently receives 3 μL of a specific 3× RAS preformed TR-FRET complex and 3 μL of Assay Buffer and is incubated at room temperature for 60 minutes (preincubation time). […] The final reaction in each well of 9 μL consists of 3 mM GTP, and the specific RAS and SOS proteins in the following concentrations: KRAS-G12C/SOS=3 nM/40 nM, KRAS-G12D/SOS=1 nM/40 nM, KRAS-G12V/SOS=1.25 nM/160 nM, HRAS/SOS=1.25 nM/40 nM, and NRAS/SOS=1.25 nM/40 nM.
(§4) The TR-FRET signal is measured on an Envision (PerkinElmer) plate reader: Excitation filter=340 nm; emission 1=495 nm; emission 2=520 nm; dichroic mirror=D400/D505; delay time=100 ms. The signal of each well is determined as the ratio of the emission at 520 nm to that at 495 nm. […] The apparent effect as a function of compound concentration is fit to a four-parameter logistic equation to calculate IC50 values using Spotfire software.

[3] = test system: NCI-H358 cells containing homozygous KRAS-G12C activating mutation (p-ERK); conditions: Homo sapiens, NCI-H358, 2 h, read-out: G12C H358 IC50 (nM)
Method: Procedure for Cellular Phospho-ERK Assay, G12C
NCI-H358 cells (ATCC® CRL-5807™), containing homozygous KRAS-G12C activating mutation, were cultured in T150 flask in growth medium (RPMI medium 1640-GlutaMAX™—I (ThermoFisher Scientific 61870) containing 10% fetal bovine serum (ThermoFisher Scientific 10091148)). The cells were harvested in growth medium after TrypLE (ThermoFisher scientific 12604021) digestion and were seeded in a 384-well collagen coated cell culture plate (Corning 356702) at a density of 15,000 cells/well, and incubated at 37° C., 5% CO2 overnight. […] RPMI medium 1640-GlutaMAX™—I was added to the intermediate plate and the contents of the intermediate plate were then transferred to the 384-well collagen coated cell culture plate, which was incubated at 37° C., 5% CO2 for 2 hours. After removal of medium from the collagen coated cell culture plate, cells were lysed in lysis buffer from Alpha SureFire® Ultra™ Multiplex p-ERK and total ERK assay kit (PerkinElmer MPSU-PTERK) containing Halt™ Protease and Phosphatase inhibitor cocktail (ThermoFisher Scientific 78446) at room temperature with constant shaking at 300 rpm for 30 minutes. The cell lysates were then transferred to an OptiPlate-384 plate (PerkinElmer 6005620), and the phosphorylation of ERK (p-ERK) and total ERK levels were detected by Alpha SureFire® Ultra™ Multiplex p-ERK kit and total ERK assay kit (PerkinElmer MPSU-PTERK) following the manufacturer's protocol. Assay plates were read on an EnVision Multimode Plate Reader (PerkinElmer), and the ratio of p-ERK vs. total ERK in each well was used as the final readout. Dose response curves were analyzed using a 4-parameter logistic model to calculate IC50 values using Spotfire software.

G13D = G13D (Homo sapiens, UniProt P01116, G13D); assay: Guanine nucleotide exchange (GNE) assay, G13D; assay type: biochemical
Chain of G13D (P01116 1-188 isoform P01116-2 G13D): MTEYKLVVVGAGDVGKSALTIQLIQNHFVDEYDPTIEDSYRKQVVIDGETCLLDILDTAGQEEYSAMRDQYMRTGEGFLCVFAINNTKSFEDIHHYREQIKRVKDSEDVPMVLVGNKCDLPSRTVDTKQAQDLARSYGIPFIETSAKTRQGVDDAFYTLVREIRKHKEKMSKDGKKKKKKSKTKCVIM
Method: as §4

[4] = target: Recombinant KRAS-G12D (SEQ ID NO: 2) (Homo sapiens, UniProt P01116, G12D); assay: SOS-catalyzed guanine nucleotide exchange (GNE) assay, KRAS-G12D
Chain of Recombinant KRAS-G12D (SEQ ID NO: 2) (P01116 with tags, fused parts or gaps isoform P01116-2 G12D): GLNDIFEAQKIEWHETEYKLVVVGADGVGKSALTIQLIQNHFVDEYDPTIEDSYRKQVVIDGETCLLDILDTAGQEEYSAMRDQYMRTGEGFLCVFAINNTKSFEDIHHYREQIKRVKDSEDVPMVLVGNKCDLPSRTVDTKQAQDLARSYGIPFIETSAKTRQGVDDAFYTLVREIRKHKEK
Method: as §1, §2, §3, §4

| SMILES | IC50 [1] [nM] | IC50 [2] [nM] | IC50 [3] [nM] | IC50 (G13D) [nM] | IC50 [4] [nM] |
| --- | --- | --- | --- | --- | --- |
| C#Cc1c(F)ccc2cccc(-c3c(F)cc4c(N5CCC[C@@](C)(O)C5)nc(OC[C@@]56CCCN5[C@H](COC(=O)N(C)C)CC6)nc4c3F)c12 [Ex-45, ((3S,7aS)-7a-(((7-(8-ethynyl-7-fluoronaphthalen-1-yl)-6,8-difluoro-4-((R)-3-hydroxy-3-methylpiperidin-1-yl)quinazolin-2-yl)oxy)methyl)hexahydro-1H-pyrrolizin-3-yl)methyl dimethylcarbamate] | 379 | 12 | 331 | 14 | 23 |
| Nc1nc2c(-c3c(Cl)cc4c(N5CCCC(O)CC5)nc(OC[C@@]56CCCN5C[C@H](F)C6)nc4c3F)c(F)cc(F)c2o1 (stereo partly drawn) [Ex-25, 1-(7-(2-amino-5,7-difluorobenzo[d]oxazol-4-yl)-6-chloro-8-fluoro-2-(((2R,7aS)-2-fluorotetrahydro-1H-pyrrolizin-7a(5H)-yl)methoxy)quinazolin-4-yl)azepan-4-ol] | 1400 | – | 611 | – | – |
| C#Cc1cccc2cccc(-c3c(F)cc4c(N5CCC[C@](C)(O)C5)nc(OC[C@@]56CCCN5C[C@H](F)C6)nc4c3F)c12 (single isomer, unassigned) [Ex-46] | 4690 | 168 | – | 291 | 986 |
| CN(C)CC1(COc2nc(N3CCC[C@@](C)(O)C3)c3cnc(-c4cc(O)cc5cccc(Cl)c45)c(F)c3n2)CC1 [Ex-20, (R)-1-(7-(8-chloro-3-hydroxynaphthalen-1-yl)-2-((1-((dimethylamino)methyl)cyclopropyl)methoxy)-8-fluoropyrido[4,3-d]pyrimidin-4-yl)-3-methylpiperidin-3-ol] | 1180 | 6 | – | 6 | 4 |
| C#Cc1cccc2cc(O)cc(-c3cnc4c(N5CCC[C@@](C)(O)C5)nc(OCC5(CN(C)C)CC5)nc4c3)c12 [Ex-19, (R)-1-(2-((1-((dimethylamino)methyl)cyclopropyl)methoxy)-7-(8-ethynyl-3-hydroxynaphthalen-1-yl)pyrido[3,2-d]pyrimidine-4-yl)-3-methylpiperidin-3-ol] | 3340 | 47 | – | 129 | 91 |
| Cc1cc2[nH]ncc2c(-c2c(F)cc3c(N4CCC[C@@](C)(O)C4)nc(OCC4(CN5CC[C@@H](F)C5)CC4)nc3c2F)c1C [Ex-39, (3R)-1-(7-(5,6-dimethy1-1H-indazol-4-yl)-6,8-difluoro-2-((1-(((R)-3-fluoropyrrolidin-1-yl)methyl)cyclopropyl)methoxy)quinazolin-4-yl)-3-methylpiperidin-3-ol] | – | 2290 | – | 2660 | 2710 |
| C[C@@]1(O)CCCN(c2nc(OC[C@]3(CO)CC3(F)F)nc3c(F)c(-c4cc(O)cc5cccc(Cl)c45)c(F)cc23)C1 [Ex-30, (3R)-1-(7-(8-chloro-3-hydroxynaphthalen-1-yl)-2-(((R)-2,2-difluoro-1-(hydroxymethyl)cyclo-propyl)methoxy)-6,8-difluoroquinazolin-4-yl)-3-methylpiperidin-3-ol] | 3150 | – | 512 | – | – |
| Oc1cc(-c2c(F)cc3c(N4CCC[C@H](O)CC4)nc(OC[C@@]45CCCN4C[C@H](F)C5)nc3c2F)c2c(Cl)cccc2c1 [Ex-35, (4S)-1-(7-(8-chloro-3-hydroxynaphthalen-1-yl)-6,8-difluoro-2-(((2R,7aS)-2-fluorotetrahydro-1H-pyrrolizin-7a(5H)-yl)methoxy)quinazolin-4-yl)azepan-4-ol] | 4840 | – | 1820 | – | – |
| C[C@@H]1C[C@@H](O)CN1c1nc(OC[C@@]23CCCN2C[C@H](F)C3)nc2c(F)c(-c3cc(O)cc4cccc(Cl)c34)c(F)cc12 [Ex-28, (3R,5R)-1-(7-(8-chloro-3-hydroxynaphthalen-1-yl)-6,8-difluoro-2-(((2R,7aS)-2-fluorotetrahydro-1H-pyrrolizin-7a(5H)-yl)methoxy)quinazolin-4-yl)-5-methylpyrrolidin-3-ol] | 1220 | – | 2260 | – | – |
| CC1CN(c2nc(OC[C@@]34CCCN3C[C@H](F)C4)nc3c(F)c(-c4cc(O)cc5cccc(Cl)c45)c(F)cc23)CC(C)(O)C1 (single isomer, unassigned) [Ex-33] | – | 143 | – | 86 | 163 |
| CN(C)C[C@@]1(COc2nc(N3CCC[C@@](C)(O)C3)c3cc(F)c(-c4cccc5ccc(F)c(Cl)c45)c(F)c3n2)CC1(F)F [Ex-14, (3R)-1-(7-(8-chloro-7-fluoronaphthalen-1-yl)-2-(((R)-1-((dimethylamino)methyl)-2,2-difluorocyclopropyl)methoxy)-6,8-difluoroquinazolin-4-yl)-3-methylpiperidin-3-ol] | – | 1230 | – | 5190 | 1190 |
| C[C@@]1(O)CCCN(c2nc(OCC3(CN4CCC(F)CC4)CC3)nc3c(F)c(-c4cc(O)cc5cccc(Cl)c45)c(F)cc23)C1 [Ex-6, (3R)-1-(7-(8-chloro-3-hydroxynaphthalen-1-yl)-6,8-difluoro-2-((1-((4-fluoropiperidin-1-yl)methyl)cyclopropyl)methoxy)quin-azolin-4-yl)-3-methylpiperidin-3-ol] | 3050 | – | – | – | – |
| COC1CCN(CC2(COc3nc(N4CCC[C@@](C)(O)C4)c4cc(F)c(-c5cc(O)cc6cccc(Cl)c56)c(F)c4n3)CC2)CC1 [Ex-5, (3R)-1-(7-(8-chloro-3-hydroxnagphthalen-1-yl)-6,8-difluoro-2-((1-((4-methoxypiperidin-1-yl)methyl)cyclopropyl)methoxy)quinazolin-4-yl)-3-methylpiperidin-3-ol] | 1150 | – | – | – | – |
| Oc1cc(-c2c(F)cc3c(N4CCC[C@@H](O)C4)nc(OC[C@@]45CCCN4C[C@H](F)C5)nc3c2F)c2c(Cl)cccc2c1 [Ex-27, (3R)-1-(7-(8-chloro-3-hydroxynaphthalen-1-yl)-6,8-difluoro-2-(((2R,7aS)-2-fluorotetrahydro-1H-pyrrolizin-7a(5H)-yl)methoxy)quinazolin-4-yl)piperidin-3-ol] | 3840 | – | – | – | – |

Continued by falling IC50 [1], values first:

| IC50 [1] [nM] | IC50 [2] [nM] | IC50 [3] [nM] | IC50 (G13D) [nM] | IC50 [4] [nM] | SMILES |
| --- | --- | --- | --- | --- | --- |
| 690 | – | 427 | – | – | CN1CCC[C@H]1COc1nc(N2CCC[C@@](C)(O)C2)c2cc(F)c(-c3cc(O)cc4cccc(Cl)c34)c(F)c2n1 [Ex-49, (3R)-1-(7-(8-chloro-3-hydroxynaphthalen-1-yl)-6,8-difluoro-2-(((S)-1-methylpyrrolidin-2-yl)methoxy)quinazolin-4-yl)-3-methylpiperidin-3-ol trifluoracetate salt] |
| 352 | – | 123 | – | – | C#Cc1cccc2cc(O)cc(-c3ccc4c(N5CCC[C@@](C)(O)C5)nc(OCC5(CN(C)C)CC5)nc4c3F)c12 [Ex-16, (R)-1-(2-((1-((dimethylamino)methyl)cyclopropyl)methoxy)-7-(8-ethynyl-3-hydroxynaphthalen-1-yl)-8-fluoroquinazolin-4-yl)-3-methylpiperidin-3-ol] |
| 329 | 1 | – | 1 | 1 | C#Cc1cccc2cc(O)cc(-c3ncc4c(N5CCC[C@@](C)(O)C5)nc(OCC5(CN(C)C)CC5)nc4c3F)c12 [Ex-21, (R)-1-(2-((1-((dimethylamino)methyl)cyclopropyl)methoxy)-7-(8-ethynyl-3-hydroxynaphthalen-1-yl)-8-fluoropyrido[4,3-d]pyrimidin-4-yl)-3-methylpiperidin-3-ol] |
| 151 | – | 48 | – | – | C[C@@]1(O)COCCN(c2nc(OC[C@@]34CCCN3C[C@H](F)C4)nc3c(F)c(-c4cc(O)cc5cccc(Cl)c45)c(F)cc23)C1 [Ex-37, (6S)-4-(7-(8-chloro-3-hydroxynaphthalen-1-yl)-6,8-difluoro-2-(((2R,7aS)-2-fluorotetrahydro-1H-pyrrolizin-7a(5H)-yl)methoxy)quinazolin-4-yl)-6-methyl-1,4-oxazepan-6-ol] |
| 142 | – | 59 | – | – | C#Cc1cccc2cc(O)cc(-c3c(F)cc4c(N5CCC[C@@](C)(O)C5)nc(OC[C@]5(CO)CC5(F)F)nc4c3F)c12 [Ex-44, (3R)-1-(2-(((R)-2,2-difluoro-1-(hydroxy-methyl)cyclopropyl)methoxy)-7-(8-ethynyl-3-hydroxynaphthalen-1-yl)-6,8-difluoroquinazolin-4-yl)-3-methylpiperidin-3-ol] |
| 132 | 2 | – | 2 | 1 | C#Cc1cccc2cc(O)cc(-c3c(F)cc4c(N5CCC[C@@](C)(O)C5)nc(OCC5(CN(C)C)CC5)nc4c3F)c12 (single isomer, unassigned) [Ex-11] |
| 95 | – | – | – | – | C#Cc1cccc2cc(O)cc(-c3c(F)cc4c(N5CCC[C@@](C)(O)C5)nc(OCC5(CN6CCC(OC)CC6)CC5)nc4c3F)c12 [Ex-7, (3R)-1-(7-(8-ethynyl-3-hydroxvnaphthalen-1-yl)-6,8-difluoro-2-((1-((4-methoxypiperidin-1-yl)methyl)cyclopropyl)methoxy)quinazolin-4-yl)-3-methylpiperidin-3-ol] |
| 86 | – | 41 | – | – | C#Cc1cccc2cc(O)cc(-c3c(F)cc4c(N5CCC[C@@](C)(O)C5)nc(OCC5(CN6CC[C@@H](F)C6)CC5)nc4c3F)c12 [Ex-12, (3R)-1-(7-(8-ethyny1-3-hydroxynaphthalen-1-yl)-6,8-difluoro-2-((1-(((R)-3-fluoropyrrolidin-1-yl)methyl)cyclopropyl)meth-oxy)quinazolin-4-yl)-3-methylpiperidin-3-ol] |
